Results: ChEMBL document CHEMBL1140860, “Synthesis and evaluation of dihydroartemisinin and dihydroartemisitene acetal dimers showing anticancer and antiprotozoal activity” (Bioorg Med Chem, 2009)

How the values were obtained:
[1] = tested on: SF-539; experiment: Growth inhibition of human SF539 cells after 48 hrs by sulforhodamine B assay; format: functional; conditions: SF-539, 48 h
[2] = tested on: SK-OV-3; experiment: Growth inhibition of human SKOV3 cells after 48 hrs by sulforhodamine B assay; format: functional; conditions: SK-OV-3, 48 h
[3] = tested on: UACC-257; experiment: Growth inhibition of human UACC257 cells after 48 hrs by sulforhodamine B assay; format: functional; conditions: UACC-257, 48 h
[4] = tested on: SK-MEL-2; experiment: Growth inhibition of human SK-MEL-2 cells after 48 hrs by sulforhodamine B assay; format: functional; conditions: SK-MEL-2, 48 h
[5] = tested on: SNB-75; experiment: Growth inhibition of human SNB75 cells after 48 hrs by sulforhodamine B assay; format: functional; conditions: SNB-75, 48 h
[6] = Growth inhibition of human […] cells after 48 hrs by sulforhodamine B assay; format: functional
[7] = tested on: T47D; experiment: Growth inhibition of human T47D cells after 48 hrs by sulforhodamine B assay; format: functional
[8] = tested on: Plasmodium falciparum; experiment: Antimalarial activity after 72 hrs against chloroquine-resistant Plasmodium falciparum W2 infected erythrocytes by LDH assay; format: functional, organism-based; conditions: W2, 72 h
[9] = tested on: KM12; experiment: Growth inhibition of human KM12 cells after 48 hrs by sulforhodamine B assay; format: functional; conditions: KM12, 48 h
[10] = tested on: K562; experiment: Growth inhibition of human K562 cells after 48 hrs by sulforhodamine B assay; format: functional; conditions: K562, 48 h
[11] = tested on: MDA-N; experiment: Growth inhibition of human MDA-N cells after 48 hrs by sulforhodamine B assay; format: functional
[12] = tested on: Malme-3M; experiment: Growth inhibition of human MALME-3M cells after 48 hrs by sulforhodamine B assay; format: functional
[13] = tested on: HCC 2998; experiment: Growth inhibition of human HCC2998 cells after 48 hrs by sulforhodamine B assay; format: functional; conditions: HCC 2998, 48 h
[14] = tested on: SW-620; experiment: Growth inhibition of human SW620 cells after 48 hrs by sulforhodamine B assay; format: functional; conditions: SW-620, 48 h
[15] = tested on: ACHN; experiment: Growth inhibition of human ACHN cells after 48 hrs by sulforhodamine B assay; format: functional
[16] = tested on: OVCAR-8; experiment: Growth inhibition of human OVCAR8 cells after 48 hrs by sulforhodamine B assay; format: functional; conditions: OVCAR-8, 48 h
[17] = tested on: SNB-19; experiment: Growth inhibition of human SNB19 cells after 48 hrs by sulforhodamine B assay; format: functional; conditions: SNB-19, 48 h
[18] = tested on: MDA-MB-231; experiment: Growth inhibition of human MDA-MB-231 cells after 48 hrs by sulforhodamine B assay; format: functional; conditions: MDA-MB-231, 48 h
[19] = tested on: UACC-62; experiment: Growth inhibition of human UACC62 cells after 48 hrs by sulforhodamine B assay; format: functional; conditions: UACC-62, 48 h
[20] = tested on: NCI/ADR-RES; experiment: Growth inhibition of human NCI/ADR-RES cells after 48 hrs by sulforhodamine B assay; format: functional
[21] = tested on: BT-549; experiment: Growth inhibition of human BT549 cells after 48 hrs by sulforhodamine B assay; format: functional; conditions: BT-549, 48 h
[22] = tested on: HOP-62; experiment: Growth inhibition of human HOP62 cells after 48 hrs by sulforhodamine B assay; format: functional; conditions: HOP-62, 48 h
[23] = Selectivity index, ratio of TC50 for african green monkey (Cercopithecus aethiops) Vero cells to IC50 for chloroquine-resistant Plasmodium falciparum W2; format: toxicity, cell-based
[24] = tested on: MCF7; experiment: Growth inhibition of human MCF7 cells after 48 hrs by sulforhodamine B assay; format: functional; conditions: MCF7, 48 h
[25] = tested on: SK-MEL-28; experiment: Growth inhibition of human SK-MEL-28 cells after 48 hrs by sulforhodamine B assay; format: functional; conditions: SK-MEL-28, 48 h
[26] = tested on: HOP-92; experiment: Growth inhibition of human HOP92 cells after 48 hrs by sulforhodamine B assay; format: functional; conditions: HOP-92, 48 h
[27] = Growth inhibition of human Hs 578T cells after 48 hrs by sulforhodamine B assay; format: functional
[28] = tested on: TK-10; experiment: Growth inhibition of human TK10 cells after 48 hrs by sulforhodamine B assay; format: functional; conditions: TK-10, 48 h
[29] = tested on: NCI-H23; experiment: Growth inhibition of human NCI-H23 cells after 48 hrs by sulforhodamine B assay; format: functional; conditions: NCI-H23, 48 h
[30] = tested on: 786-0; experiment: Growth inhibition of human 786-0 cells after 48 hrs by sulforhodamine B assay; format: functional; conditions: 786-0, 48 h
[31] = tested on: A498; experiment: Growth inhibition of human A498 cells after 48 hrs by sulforhodamine B assay; format: functional; conditions: A498, 48 h
[32] = tested on: A549; experiment: Growth inhibition of human A549 cells after 48 hrs by sulforhodamine B assay; format: functional; conditions: A549, 48 h

For C[C@H]1[C@@H](O[C@@H](C)CO[C@H]2O[C@@H]3O[C@@]4(C)CC[C@H]5[C@H](C)CC[C@@H]([C@H]2C)[C@@]35OO4)O[C@@H]2O[C@@]3(C)CC[C@H]4[C@H](C)CC[C@@H]1[C@@]24OO3, the GI50 [1] was 39 nM, the GI50 [2] was 23600 nM and the GI50 [3] was 21 nM. For the same compound, the GI50 [4] was 62 nM, the GI50 [5] was 332 nM and the GI50 [6] was under 10 nM. It also gave a GI50 [7] of under 10 nM, an IC50 [8] of 5100 nM and a GI50 [9] of under 10 nM. It also gave a GI50 [10] of under 10 nM, a GI50 [11] of 42 nM and a GI50 [12] of 37 nM. It also gave a GI50 [13] of 49 nM, a GI50 [14] of under 10 nM and a GI50 [15] of 33 nM. It also gave a GI50 [16] of 34 nM, a GI50 [17] of 104 nM and a GI50 [18] of 80 nM. For the same compound, the GI50 [19] was 16 nM, the GI50 [20] was 264 nM and the GI50 [21] was 58 nM. It also gave a GI50 [22] of 15900 nM, a selectivity ratio [23] of over 15 and a GI50 [24] of under 10 nM. It also gave a GI50 [25] of 16300 nM, a GI50 [26] of 63 nM and a GI50 [27] of 21 nM. The GI50 [28] was 17900 nM, the GI50 [29] was 37 nM and the GI50 [30] was 48 nM. The GI50 [31] was 409 nM and the GI50 [32] was 18 nM.
